Drawing on the supplement of paper PMC10307832, this text covers relative viability for seven cell lines.

Holding throughout (assay): relative viability (nuclei count vs DMSO), 5 days (fraction); higher = more cells survive
Compound in one experiment: COC1=CC(c2cc3ccccc3[nH]2)=N/C1=C\c1[nH]c(C)cc1C [Obatoclax]
The essentials: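 Vehicle-anchored 1536-well plates of lung cancer cell lines, held overnight at 37 °C, were pinned with five library-drug doses (not always all listed) spaced by √10. No medium change followed over the next 5 days, after which the cells were fixed, permeabilised and Hoechst-stained together and imaged at 4×. Nuclei were counted with MetaXpress, and viability is treated-well nuclei over vehicle-well nuclei, taken as a median across plates. Plates passed with control CV below 25% and at least one doubling.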

Compound in the experiment “Bortezomib + Phenformin”: CC(C)C[C@H](NC(=O)[C@H](Cc1ccccc1)NC(=O)c1cnccn1)B(O)O [Bortezomib] + N=C(N)NC(=N)NCCc1ccccc1 [Phenformin] (partner 250 µM)
The essentials:
(§1)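 A single step with final 0.05% Triton X-100, 1% formaldehyde and 1 ug/ml Hoechst fixed the cells and stained nuclei 5 days after treatment. Lung cancer cell lines in 1536-well plates had been treated by pin tool the day after seeding with one drug alone or a fixed anchor-drug dose plus five library-drug doses (not always all listed) in √10 steps, and nuclei were counted on 4× images. Relative viability is the ratio of nuclei in treated wells to nuclei in vehicle wells, taken as the median of duplicate plates.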

Compound in experiment [1]: CC1=CC(=NN1)NC2=CC(=NC(=N2)/C=C/C3=CC=CC=C3)N4CCN(CC4)C + CC(C)C[C@H](NC(=O)[C@H](Cc1ccccc1)NC(=O)c1cnccn1)B(O)O [Bortezomib] (partner 0.002 µM)
The gist of the method: as §1

Compound in experiment [2]: CC1=CC(=NN1)NC2=CC(=NC(=N2)/C=C/C3=CC=CC=C3)N4CCN(CC4)C + C[C@@H](Oc1cc(-c2cnn(C3CCNCC3)c2)cnc1N)c1c(Cl)ccc(F)c1Cl [Crizotinib] (partner 1 µM)
The gist of the method: as §1

In the case of EPLC-272H, the relative viability with Obatoclax (0.01 µM) stood at 0.99; with Obatoclax (0.03162 µM), 0.924; in the experiment with Obatoclax (0.1 µM), 0.96; with Obatoclax (0.3162 µM), 0.675; in the experiment with Obatoclax (1 µM), 0.339; with Bortezomib + Phenformin (first compound 0.0002 µM) it was 0.353. Also, the relative viability stood at 0.245 with Bortezomib + Phenformin (first compound 0.000632 µM); 0.35 with Bortezomib + Phenformin (first compound 0.002 µM); 0.109 with Bortezomib + Phenformin (first compound 0.006325 µM); 0.0723 with Bortezomib + Phenformin (first compound 0.02 µM); 0.952 in experiment [1] (first compound 0.08 µM); 0.914 in experiment [1] (first compound 0.253 µM). The relative viability is 0.956 in experiment [1] (first compound 0.8 µM); 0.531 in experiment [1] (first compound 2.53 µM); 0.279 in experiment [1] (first compound 8 µM); 0.884 in experiment [2] (first compound 0.08 µM); 1.06 in experiment [2] (first compound 0.253 µM); 0.711 in experiment [2] (first compound 0.8 µM). Besides, the relative viability was found to be 0.452 in experiment [2] (first compound 2.53 µM) and 0.174 in experiment [2] (first compound 8 µM).

Regarding LXF-289, the relative viability came to 0.97 with Obatoclax (0.01 µM); 1.03 with Obatoclax (0.03162 µM); 0.989 with Obatoclax (0.1 µM); 0.982 with Obatoclax (0.3162 µM); 0.951 with Obatoclax (1 µM); 0.556 with Bortezomib + Phenformin (first compound 0.0002 µM). For the same cell line, the relative viability was found to be 0.507 in the experiment with Bortezomib + Phenformin (first compound 0.000632 µM); 0.483 with Bortezomib + Phenformin (first compound 0.002 µM); 0.076 with Bortezomib + Phenformin (first compound 0.006325 µM); 0.0724 with Bortezomib + Phenformin (first compound 0.02 µM); 0.992 in experiment [1] (first compound 0.08 µM); 0.98 in experiment [1] (first compound 0.253 µM). The relative viability in experiment [1] (first compound 0.8 µM) came to 0.917; in experiment [1] (first compound 2.53 µM) it was 0.656; in experiment [1] (first compound 8 µM), 0.115; in experiment [2] (first compound 0.08 µM), 0.817; in experiment [2] (first compound 0.253 µM), 0.825; in experiment [2] (first compound 0.8 µM), 0.682. For the same cell line, the figures for the relative viability in experiment [2] (first compound 2.53 µM) and in experiment [2] (first compound 8 µM) were 0.23 and 0.0611, respectively.

With COR-L23, the relative viability with Obatoclax (0.01 µM) worked out at 1.01; with Obatoclax (0.03162 µM), 1.07; with Obatoclax (0.1 µM), 0.945; with Obatoclax (0.3162 µM), 0.375; with Obatoclax (1 µM), 0.27; in the experiment with Bortezomib + Phenformin (first compound 0.0002 µM) it was 0.466. Besides, the relative viability with Bortezomib + Phenformin (first compound 0.000632 µM) was determined as 0.429; in the experiment with Bortezomib + Phenformin (first compound 0.002 µM) it was 0.4; in the experiment with Bortezomib + Phenformin (first compound 0.006325 µM), 0.0535; with Bortezomib + Phenformin (first compound 0.02 µM) it was 0.0571; in experiment [1] (first compound 0.08 µM), 0.972; in experiment [1] (first compound 0.253 µM) it was 1.29. Moreover, the relative viability in experiment [1] (first compound 0.8 µM) was found to be 1; in experiment [1] (first compound 2.53 µM), 0.196; in experiment [1] (first compound 8 µM) it was 0.0895; in experiment [2] (first compound 0.08 µM), 0.696; in experiment [2] (first compound 0.253 µM), 0.676; in experiment [2] (first compound 0.8 µM) it was 0.41. Besides, the values for the relative viability in experiment [2] (first compound 2.53 µM) and in experiment [2] (first compound 8 µM) were 0.159 and 0.0747, respectively.

As for RERF-LC-KJ, the relative viability was 0.98 in the experiment with Obatoclax (0.01 µM); 1.03 with Obatoclax (0.03162 µM); 0.989 in the experiment with Obatoclax (0.1 µM); 0.924 in the experiment with Obatoclax (0.3162 µM); 0.715 with Obatoclax (1 µM); 0.377 with Bortezomib + Phenformin (first compound 0.0002 µM). Further, the relative viability with Bortezomib + Phenformin (first compound 0.000632 µM) worked out at 0.42; in the experiment with Bortezomib + Phenformin (first compound 0.002 µM) it was 0.415; with Bortezomib + Phenformin (first compound 0.006325 µM) it was 0.337; in the experiment with Bortezomib + Phenformin (first compound 0.02 µM), 0.272; in experiment [1] (first compound 0.08 µM), 1.09; in experiment [1] (first compound 0.253 µM), 1.16. For the same cell line, the relative viability in experiment [1] (first compound 0.8 µM) stood at 1.12; in experiment [1] (first compound 2.53 µM) it was 0.748; in experiment [1] (first compound 8 µM), 0.381; in experiment [2] (first compound 0.08 µM), 0.832; in experiment [2] (first compound 0.253 µM), 0.82; in experiment [2] (first compound 0.8 µM), 0.747. Further, the results for the relative viability in experiment [2] (first compound 2.53 µM) and in experiment [2] (first compound 8 µM) were 0.617 and 0.234, respectively.

As to NCI-H1755, the relative viability stood at 0.981 with Obatoclax (0.01 µM); 0.975 in the experiment with Obatoclax (0.03162 µM); 0.884 with Obatoclax (0.1 µM); 0.994 with Obatoclax (0.3162 µM); 0.964 with Obatoclax (1 µM); 0.683 with Bortezomib + Phenformin (first compound 0.0002 µM). The relative viability was 0.596 with Bortezomib + Phenformin (first compound 0.000632 µM); 0.592 in the experiment with Bortezomib + Phenformin (first compound 0.002 µM); 0.23 in the experiment with Bortezomib + Phenformin (first compound 0.006325 µM); 0.229 with Bortezomib + Phenformin (first compound 0.02 µM); 0.913 in experiment [1] (first compound 0.08 µM); 1.01 in experiment [1] (first compound 0.253 µM). Moreover, the relative viability in experiment [1] (first compound 0.8 µM) was determined as 0.956; in experiment [1] (first compound 2.53 µM), 0.63; in experiment [1] (first compound 8 µM), 0.195; in experiment [2] (first compound 0.08 µM), 0.863; in experiment [2] (first compound 0.253 µM) it was 0.929; in experiment [2] (first compound 0.8 µM), 0.78. For the same cell line, the figures for the relative viability in experiment [2] (first compound 2.53 µM) and in experiment [2] (first compound 8 µM) were 0.593 and 0.105, respectively.

On to PC-14, for which the relative viability with Obatoclax (0.01 µM) worked out at 0.943; with Obatoclax (0.03162 µM), 1.02; with Obatoclax (0.1 µM), 0.787; with Obatoclax (0.3162 µM), 0.796; with Obatoclax (1 µM), 0.313; with Bortezomib + Phenformin (first compound 0.0002 µM), 0.434. In addition, the relative viability came out at 0.487 in the experiment with Bortezomib + Phenformin (first compound 0.000632 µM); 0.616 with Bortezomib + Phenformin (first compound 0.002 µM); 0.183 with Bortezomib + Phenformin (first compound 0.006325 µM); 0.061 in the experiment with Bortezomib + Phenformin (first compound 0.02 µM); 0.748 in experiment [1] (first compound 0.08 µM); 0.947 in experiment [1] (first compound 0.253 µM). Also, the relative viability in experiment [1] (first compound 0.8 µM) was 0.839; in experiment [1] (first compound 2.53 µM), 0.488; in experiment [1] (first compound 8 µM), 0.0557; in experiment [2] (first compound 0.08 µM) it was 0.831; in experiment [2] (first compound 0.253 µM) it was 1; in experiment [2] (first compound 0.8 µM), 0.872. In addition, the results for the relative viability in experiment [2] (first compound 2.53 µM) and in experiment [2] (first compound 8 µM) were 0.494 and 0.0811, respectively.

With NCI-H322M, the relative viability with Obatoclax (0.01 µM) was 0.975; with Obatoclax (0.03162 µM) it was 0.783; with Obatoclax (0.1 µM), 1.16; in the experiment with Obatoclax (0.3162 µM) it was 1; with Obatoclax (1 µM) it was 1.01; in the experiment with Bortezomib + Phenformin (first compound 0.0002 µM), 0.807. For the same cell line, the relative viability was 0.748 in the experiment with Bortezomib + Phenformin (first compound 0.002 µM); 0.295 in the experiment with Bortezomib + Phenformin (first compound 0.006325 µM); 0.322 in the experiment with Bortezomib + Phenformin (first compound 0.02 µM); 1.14 in experiment [1] (first compound 0.08 µM); 1.24 in experiment [1] (first compound 0.253 µM); 1.17 in experiment [1] (first compound 0.8 µM). The relative viability amounted to 1.1 in experiment [1] (first compound 2.53 µM); 0.258 in experiment [1] (first compound 8 µM); 0.97 in experiment [2] (first compound 0.08 µM); 0.866 in experiment [2] (first compound 0.253 µM); 0.817 in experiment [2] (first compound 0.8 µM); 0.447 in experiment [2] (first compound 2.53 µM). Besides, in experiment [2] (first compound 8 µM), the relative viability worked out at 0.128.
